The results in this text go back to patent publication US20250228865A1, “COMPOUNDS FOR ENHANCING READ THROUGH OF GENES CONTAINING PREMATURE TERMINATION CODONS AND METHODS FOR MAKING AND USING THE SAME” (Sanofi US Services Inc., priority 2022, published 2025).

pEC50: −log10 of the molar value.

For assay [1], the system named is recombinant human CFTR carrying the premature stop codon (PTC) mutation G542X. Put plainly: CFTR-PTC mutant translation readthrough, Nanoluc tagged CFTR luminescence (G542X cell line). It counts as cell-based. To be noted: in combination with G418, G542X cell line; for CFTR G542X ACTIVITY Fold 10 μM G-418: fold over 10 μM G-418; for pEC50: 16HBE cells. In short, it runs like this:
(§1)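 Readthrough is the 48 h compound-induced luminescence increase scaled to that of maximal G418 (125-250 μM). Compounds run from 50 μM final in 2-fold steps, ±10 μM G418, on 16HBE lines carrying Nanoluc-tagged CFTR G542X (extracellular loop 4 tag) or R1162X (C-terminal tag), with 3 μM VX-809 present.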

Assay [2] has as its system recombinant human CFTR carrying the premature stop codon (PTC) mutation R1162X. Put plainly: CFTR-PTC mutant translation readthrough, Nanoluc tagged CFTR luminescence (R1162X cell line). The note with it: for CFTR R1162X ACTIVITY Fold 10 μM G-418: fold over 10 μM G-418, in combination with G418; for pEC50: in combination with G418, 16HBE cells, read-out: CFTR R1162X ACTIVITY EC50. It is filed as cell-based. The procedure, abridged: as §1

Turning to `C=C1NC(=O)N(c2ccc(OCc3c(Cl)cccc3Cl)cn2)C1=O`, in assay [1], the “CFTR G542X ACTIVITY Fold 10 μM G-418” value is “B′ (B′ = ≥5X to <10X)” and the pEC50 is 5.00 to 6.00. In assay [2], the “CFTR R1162X ACTIVITY Fold 10 μM G-418” value was “B′ (B′ = ≥5X to <10X)” and the pEC50 was 5.00 to 6.00.

With `CC(O)C1CCN(c2ncc(OCc3c(Cl)cccc3Cl)cn2)C1` (stereo not shown) [1-[1-[5-[(2,6-dichlorophenyl)methoxy]pyrimidin-2-yl]pyrrolidin-3-yl]ethanol], in assay [1], the “CFTR G542X ACTIVITY Fold 10 μM G-418” value is on record as “A′ (A′ = ≥10X)” and the pEC50 was 5.00 to 6.00. Moreover, in assay [2], the “CFTR R1162X ACTIVITY Fold 10 μM G-418” value is on record as “A′ (A′ = ≥10X)” and the pEC50 was 5.00 to 6.00.

For the compound `Cc1cccc(C(F)(F)F)c1COc1cnc(N2CCS(=O)(=O)C(CO)C2)nc1` (stereo not shown) [2-(hydroxymethyl)-4-(5-{[2-methyl-6-(trifluoromethyl)phenyl]], the “CFTR G542X ACTIVITY Fold 10 μM G-418” value in assay [1] was “C′ (C′ = <5X)”. Besides, the pEC50 in assay [1] and in assay [2] was 5.00 to 6.00 in each case.

As for `NC(=O)[C@H]1CCN(c2ncc(OCc3c(Cl)cccc3C(F)(F)F)cn2)C1`, in assay [1], the “CFTR G542X ACTIVITY Fold 10 μM G-418” value is given as “A′ (A′ = ≥10X)” and the pEC50 is 5.00 to 6.00. Besides, in assay [2], the “CFTR R1162X ACTIVITY Fold 10 μM G-418” value is listed as “A′ (A′ = ≥10X)” and the pEC50 is 5.00 to 6.00.

In the case of `O=C1N[C@@H](CO)CN1c1ccc(OCc2c(Cl)cccc2Cl)cn1`, in assay [1], the “CFTR G542X ACTIVITY Fold 10 μM G-418” value is recorded as “A′ (A′ = ≥10X)” and the pEC50 was 5.00 to 6.00. In assay [2], the “CFTR R1162X ACTIVITY Fold 10 μM G-418” value is reported as “A′ (A′ = ≥10X)” and the pEC50 is 5.00 to 6.00.

Take `NC(=O)NCC1CN(c2ncc(OCc3c(Cl)cccc3Cl)cn2)CCO1` (stereo not shown) [[4-[5-[(2,6-dichlorophenyl)methoxy]pyrimidin-2-yl]morpholin-2-yl]methylurea]: in assay [1], the “CFTR G542X ACTIVITY Fold 10 μM G-418” value was “A′ (A′ = ≥10X)” and the pEC50 was 5.00 to 6.00. In addition, in assay [2], the “CFTR R1162X ACTIVITY Fold 10 μM G-418” value is on record as “B′ (B′ = ≥5X to <10X)” and the pEC50 was 5.00 to 6.00.

On to `OCc1cc(-c2ncc(OCc3c(Cl)cccc3C(F)(F)F)cn2)no1`, for which, in assay [1], the “CFTR G542X ACTIVITY Fold 10 μM G-418” value is reported as “A′ (A′ = ≥10X)” and the pEC50 is > 6.00. In assay [2], the “CFTR R1162X ACTIVITY Fold 10 μM G-418” value was “A′ (A′ = ≥10X)” and the pEC50 was 5.00 to 6.00.

Turning to `NCc1ccn(-c2ccc(OCc3c(Cl)cccc3Cl)cc2)n1` [[1-[4-[(2,6-dichlorophenyl)methoxy]phenyl]pyrazol-3-yl]methanamine], in assay [1], the “CFTR G542X ACTIVITY Fold 10 μM G-418” value is “B′ (B′ = ≥5X to <10X)” and the pEC50 is 5.00 to 6.00. In addition, in assay [2], the “CFTR R1162X ACTIVITY Fold 10 μM G-418” value is “A′ (A′ = ≥10X)” and the pEC50 is 5.00 to 6.00.

Turning to `Cc1cccc(C(F)(F)F)c1COc1ccc(-n2cnc(CN)c2)nc1`, in assay [1], the “CFTR G542X ACTIVITY Fold 10 μM G-418” value was “A′ (A′ = ≥10X)” and the pEC50 was > 6.00. In addition, in assay [2], the “CFTR R1162X ACTIVITY Fold 10 μM G-418” value is listed as “A′ (A′ = ≥10X)” and the pEC50 is 5.00 to 6.00.

As for `O=CN[C@@H](CO)C(=O)Nc1ccc(OCc2c(Cl)cccc2Cl)cn1`, the pEC50 in assay [1] is < 5.00. Moreover, in assay [2], the “CFTR R1162X ACTIVITY Fold 10 μM G-418” value is reported as “B′ (B′ = ≥5X to <10X)” and the pEC50 was < 5.00.

On to `O=C1OC(CO)CN1c1ncc(OC(F)(F)c2c(Cl)cccc2Cl)cn1` (stereo not shown), for which the pEC50 in assay [1] and in assay [2] was < 5.00 each time.

Take `NC[C@@H]1CN(c2ncc(OCc3c(Cl)cccc3Cl)cn2)CCO1`: in assay [1], the “CFTR G542X ACTIVITY Fold 10 μM G-418” value is “B′ (B′ = ≥5X to <10X)” and the negative-log EC50 (pEC50) is > 6.00. Besides, in assay [2], the “CFTR R1162X ACTIVITY Fold 10 μM G-418” value is “A′ (A′ = ≥10X)” and the pEC50 is 5.00 to 6.00.

`CCc1cccc(C(F)(F)F)c1COc1ccc(N2C[C@@H](CO)NC2=O)nc1`: in assay [1], the “CFTR G542X ACTIVITY Fold 10 μM G-418” value is given as “C′ (C′ = <5X)” and the pEC50 is > 6.00. Further, in assay [2], the “CFTR R1162X ACTIVITY Fold 10 μM G-418” value is reported as “C′ (C′ = <5X)” and the pEC50 is > 6.00.

With `O=C1OC(CO)CN1c1ccc(OCc2cc(Cl)cc(Cl)c2)cc1` (stereo not shown) [3-[4-[(3,5-dichlorophenyl)methoxy]phenyl]-5-(hydroxymethyl)oxazolidin-2-one], in assay [1], the “CFTR G542X ACTIVITY Fold 10 μM G-418” value was “B′ (B′ = ≥5X to <10X)” and the pEC50 is 5.00 to 6.00. Moreover, in assay [2], the “CFTR R1162X ACTIVITY Fold 10 μM G-418” value is “B′ (B′ = ≥5X to <10X)” and the negative-log EC50 (pEC50) was < 5.00.

As for `OCc1cn(-c2ncc(OCc3c(Cl)cccc3OC(F)F)cn2)cn1`, in assay [1], the “CFTR G542X ACTIVITY Fold 10 μM G-418” value is “A′ (A′ = ≥10X)” and the pEC50 was 5.00 to 6.00. In assay [2], the “CFTR R1162X ACTIVITY Fold 10 μM G-418” value is on record as “B′ (B′ = ≥5X to <10X)” and the pEC50 was 5.00 to 6.00.

As to `O=C1CCC(=O)N1c1ccc(OCc2c(Cl)cccc2Cl)cc1` [1-[4-[(2,6-dichlorophenyl)methoxy]phenyl]pyrrolidine-2,5-dione], in assay [1], the “CFTR G542X ACTIVITY Fold 10 μM G-418” value is given as “A′ (A′ = ≥10X)” and the pEC50 is 5.00 to 6.00. Besides, in assay [2], the “CFTR R1162X ACTIVITY Fold 10 μM G-418” value is listed as “B′ (B′ = ≥5X to <10X)” and the pEC50 is 5.00 to 6.00.

Take `NC(=O)c1ncn(-c2ncc(OCc3c(Cl)cccc3Cl)cn2)n1` [1-[5-[(2,6-dichlorophenyl)methoxy]pyrimidin-2-yl]-1,2,4-triazole-3-carboxamide]: in assay [1], the “CFTR G542X ACTIVITY Fold 10 μM G-418” value is recorded as “C′ (C′ = <5X)” and the pEC50 is 5.00 to 6.00. Moreover, the pEC50 in assay [2] was < 5.00.

With `NC(=O)N1CCCN(c2ncc(OCc3c(Cl)cccc3Cl)cn2)CC1` [4-[5-[(2,6-dichlorophenyl)methoxy]pyrimidin-2-yl]-1,4-diazepane-1-carboxamide], in assay [1], the “CFTR G542X ACTIVITY Fold 10 μM G-418” value is on record as “A′ (A′ = ≥10X)” and the pEC50 is 5.00 to 6.00. In addition, in assay [2], the “CFTR R1162X ACTIVITY Fold 10 μM G-418” value is “A′ (A′ = ≥10X)” and the pEC50 is 5.00 to 6.00.

Turning to `OCCn1cnc(Nc2ccc(OCc3c(Cl)cccc3Cl)cn2)n1`, in assay [1], the “CFTR G542X ACTIVITY Fold 10 μM G-418” value is recorded as “A′ (A′ = ≥10X)” and the negative logarithm of the EC50 (pEC50) is 5.00 to 6.00. In assay [2], the “CFTR R1162X ACTIVITY Fold 10 μM G-418” value is reported as “A′ (A′ = ≥10X)” and the negative-log EC50 (pEC50) was 5.00 to 6.00.

For the compound `OC[C@@H]1CN(c2ncc(OCc3c(Cl)cccc3Cl)cn2)C[C@@H](C(F)(F)F)O1` (racemic), in assay [1], the “CFTR G542X ACTIVITY Fold 10 μM G-418” value is “A′ (A′ = ≥10X)” and the pEC50 was > 6.00. Moreover, in assay [2], the “CFTR R1162X ACTIVITY Fold 10 μM G-418” value is reported as “B′ (B′ = ≥5X to <10X)” and the pEC50 was 5.00 to 6.00.

`OCc1cn(-c2ncc(OCc3c(Cl)cccc3C(F)(F)F)cn2)nn1`: in assay [1], the “CFTR G542X ACTIVITY Fold 10 μM G-418” value was “A′ (A′ = ≥10X)” and the pEC50 is 5.00 to 6.00. Further, in assay [2], the “CFTR R1162X ACTIVITY Fold 10 μM G-418” value is “A′ (A′ = ≥10X)” and the pEC50 was 5.00 to 6.00.

On to `O=C1NC2(CCCC2)C(=O)N1c1ccc(OCc2c(Cl)cccc2C(F)(F)F)cc1`, for which, in assay [1], the “CFTR G542X ACTIVITY Fold 10 μM G-418” value is on record as “A′ (A′ = ≥10X)” and the pEC50 was > 6.00. In addition, in assay [2], the “CFTR R1162X ACTIVITY Fold 10 μM G-418” value is “B′ (B′ = ≥5X to <10X)” and the pEC50 is 5.00 to 6.00.

Turning to `NCc1cn(-c2ccc(OCc3c(Cl)cccc3Cl)cn2)nn1` [[1-[5-[(2,6-dichlorophenyl)methoxy]-2-pyridyl]triazol-4-yl]methanamine], in assay [1], the “CFTR G542X ACTIVITY Fold 10 μM G-418” value is “A′ (A′ = ≥10X)” and the pEC50 is 5.00 to 6.00. In addition, in assay [2], the “CFTR R1162X ACTIVITY Fold 10 μM G-418” value is reported as “A′ (A′ = ≥10X)” and the pEC50 was 5.00 to 6.00.

For `CN(CCCCO)c1ncc(OCc2c(Cl)cccc2Cl)cn1` [4-[[5-[(2,6-dichlorophenyl)methoxy]pyrimidin-2-yl]-methyl-amino]butan-1-ol], in assay [1], the “CFTR G542X ACTIVITY Fold 10 μM G-418” value is on record as “A′ (A′ = ≥10X)” and the pEC50 was > 6.00. In assay [2], the “CFTR R1162X ACTIVITY Fold 10 μM G-418” value is “A′ (A′ = ≥10X)” and the pEC50 was > 6.00.
